Experimental data taken from US20040043394A1, “Gene expression element specific for Ah receptor ligands and heterologous gene expression systems dependent on the element” (priority 2002, published 2004).

Tests used:
[1] = tested on: AhR-GUS and AhRV-GUS transformed tobacco plant (mouse AhR/AhRV, Arnt, XRE-GUS); test: GUS activity in transformed tobacco plants (AhR-GUS / AhRV-GUS) treated with AhR-ligand; type: in vivo, Nicotiana tabacum cv. Sumsun N N; settings: for enhancement of the GUS activity in the presence of AhR-ligands: medium with 25 μM 20-MC, 25 μM β-NF, 50 μM indigo, stem and leaf soluble protein, FIG. 10
Excerpt: A AhR-ligand specific gene expression system for plants was constructed. It was constructed by introducing a AhR, Arnt and XRE to a plant. From a liver cDNA library prepared from C57BL/6 mouse, an AhR cDNA (Schmidt, J. V., et al, 1993) and an Arnt cDNA (Reisz-Porszasz, S., et al, 1994) were cloned. In order to constitutively express both cDNAs in a plant, there were constructed two kinds of plant expression plasmids pSKA2G and pSKAvAtG. The plasmids comprising a tandemly aligned XRE sequence, a transcription factor expression unit (i.e. the first transcription structure) inserted in an expression unit composed of a cauliflower mosaic virus 35S promoter (CaMV35S-P) and a nopaline synthase terminator (Nos-T), and a reporter unit composed of a reporter gene and Nos-T (structures are shown in FIG. 7). The PSKAvAtG contains a chimera AhR (AhRV) in which transcriptional activation domain of AhR is substituted with VP16 transcriptional activation domain (AhRV gene). Using Agrobacterium with each plasmid introduced therein, a tobacco plant (Nicotiana tabacum cv. Sumsun N N) was transformed by a leaf disc method.
The plants which had been introduced with each plant expression plasmid were selected two times by antibiotic kanamycin. Each genomic DNA was extracted from re-differentiated individuals after kanamycin selection, and genomic PCR analysis was performed using primers specific for each of AhR or AhRV, Arnt and GUS.
The plant transformed with either pSKA2G or pSKAvAtG is designated as AhR-GUS or AhRV-GUS plants, respectively. Axillary buds were removed from all transformed plants. […] Then the soluble protein fractions were extracted from stem and leaf parts of the grown buds, and the GUS activities of the fractions were measured. The medium were added with 0.01% Tween 20 and an AhR-ligand (20-MC) or a solvent DMSO solution to a final concentration of 0.1%. Similarly, a axillary bud was cultured for 2 weeks on an MS medium in the presence of various concentrations (8 grades) of AhR-ligand 20 MC. The AhR-ligand dose dependent expression of the reporter was analyzed. In addition, similarly, a axillary bud was cultured for 2 weeks on an MS medium containing 25 μM 20-MC, and tissue-specific expression of a reporter in a plant was analyzed using a GUS staining method. That is, each tissue of a plant was impregnation-treated in a X-Gluc solution (0.1M sodium phosphate buffer, pH 7.0, 1.9 mM X-glucuronide, 0.5 mM K3Fe(CN)6, 0.5 mM K4Fe(CN)6, 0.3% (v/v) Triton X-100, 20% methanol) under reduced pressure, then incubated at 37° C. overnight, and 70% ethanol was added to stop the reaction. Thereafter, decoloration was performed in 70% ethanol, and the tissue was observed under an optical microscope or stereomicroscope.

[2] = tested on: LexA operator promoter-LacZ reporter unit in yeast L40 strain expressing XDV/XVD (mouse AhR-ligand binding control region); test: Yeast reporter assay system for XDV/XVD (LacZ activity); type: cell-based; settings: yeast introduced with XDV/XVD, FIG. 6
Description: Yeasts introduced with various XDV/XVD expression plasmids were pre-cultured overnight in a liquid selective medium containing glucose as a carbon source, cultured for 14 to 16 hours in a liquid selective medium containing an AhR-ligand and galactose(as a carbon source), and the LacZ activity was measured.
By using a reporter gene assay system using a yeast expression system, assessment of performance of XDV/XVD was performed.
An yeast L40 strain having a reporter unit composed of a LexA operator promoter and a β-galactosidase gene (LacZ) in a chromosome [(MATa his3Δ200 trp1-901 leu2-3112 ade2 LYS2:: (41exAop-HIS3)URA3:: (81exAop-lacZ)GAL4) (Invitrogen, Netherland)) was transformed, and assessed by the LacZ activity dependent on the expression of XDV/XVD and ligand treatment as an index. […]
Various AhR-ligands (dioxins) were dissolved in DMSO (a final concentration of DMSO in a medium was adjusted at 0.1%). […] An absorbance at 415 nm of the supernatant was measured. A LacZ unit was calculated by the following calculation equation:
LacZ unit=absorbance at 415 nm/[absorbance at 600 nm of a diluted cultured yeast solution in which 200 μL of cultured yeast solution was diluted up to 1 mL]×reaction time (min)]×1000

[3] = tested on: AhR; settings: cultured mammal cell; cited from earlier work

Compound	GUS staining of tissues (X-Gluc) ([1]; 2 weeks on MS medium containing 25 μM 20-MC, leaf and stem, FIG. 12 B)	20-MC concentration in a medium that can be detected by the transformed plant ([1]; axillary bud cultured 2 weeks on MS medium, 8 grades of 20-MC)	GUS activity dependent on AhR-ligand treatment, line 4 and line 21 of AhRV-GUS plant ([1]; line 4 and line 21 of the AhRV-GUS plant, stronger than GUS under CaMV 35S-P, FIG. 9)	enhancement of the GUS activity in the presence of AhR-ligands [1]	LacZ activity on AhR-ligand treatment, in words [2]	TCDD concentration detectable [3]
Cc1ccc2cc3c(ccc4ccccc43)c3c2c1CC3 [20-MC, 20-methylcholanthrene]	remarkable expression of a GUS reporter gene	5 nM	very strong enhancement of the GUS activity	remarkable	–	–
O=c1cc(-c2ccccc2)oc2ccc3ccccc3c12 [β-NF, β-naphthoflovone]	–	–	–	remarkable	enhancement of the LacZ activity was recognized	–
Clc1cc2c(cc1Cl)Oc1cc(Cl)c(Cl)cc1O2 [TCDD, 2,3,7,8-TCDD]	–	–	–	–	–	0.01 ppb
